# Experimental data reported in patent US11117919B2, “Icariside compound, preparation method thereof, and application thereof” (FOSHAN GOLDEN HEALTH TECHNOLOGY CO., LTD., priority 2015, dated 2021).
# Experiments:
# [1] = system: xenograft tumor; experiment: Xenograft tumor growth in nude mice; assay type: in vivo, BALB/c (nu/nu) female nude mice; conditions: intraperitoneal 0.02 and 0.1 mg/10 g every 2 days, 30-day period
# Protocol: The test used 4-6 weeks old BALB/c (nu/nu) female nude mice weighed 18-22 g fed in a SPF clean room with free access to food and water. […] When the tumor grew to the initial volume for administration with a pharmaceutical (100 mm^3), these mice were divided into groups with 10 mice for each group. For each group, nude mice were injected intraperitoneally: (1) the blank control group was injected with 0.1 ml/10 g solvent (5% DMSO+95% physiological saline); […] The administration was conducted every 2 days in a 30-day period. Vernier caliper was used to measure the largest longitudinal diameter (L) and transverse diameter (S) of tumor every two days. The approximate volume of the tumor was calculated with the equation of V (cm^3)=0.5×L× S^2 to plot a tumor growth curve. After the pharmaceutical treatment, the tumor was stripped and weighed for record.
# [2] = system: PFMCs from TB infected patients; experiment: IFN-γ production by pleural fluid cells (PFMCs) of tuberculosis patients; assay type: cell-based, human; conditions: 0.1, 0.5, 1 μg/ml, 48 h
# Protocol: (2) Isolation of Pleural fluid cells (PFMCs, namely cells stimulated by tuberculosis bacteria infection) from patients suffering from tuberculosis: blood samples were taken from volunteers (vein blood of TB patients) and then anticoagulated with heparin and diluted with an equal volume of Hank's solution. The solution was centrifuged once (1800 rpm, 22° C. 8 minutes). After removal of the supernatant, an appropriate amount of ELS (erythrocyte lysate) was added for re-suspension. After 3-5 minutes, an appropriate amount of Hank's solution was added for stop and then the mixture was centrifuged twice (1800 rpm, 22° C. 8 minutes), followed by addition of RPMI1640 complete medium to adjust the PBMC cell concentration to 2×10^9 cells/L.
# (§1) (3) PBMCs and PFMCs cell culture (MLC) with stimulation by a pharmaceutical: Icariside I was used at concentrations of 0.1 μg/ml, 0.5 μg/ml, and 1 μg/ml respectively to stimulate PBMCs and PFMCs under the incubation condition at 37° C. with 5% CO2 for 48 hours.
# (4) ELISA assay for analysis of IFN-γ: according to the method stated in Example 5 (4), the levels of γ-interferon produced by PBMCs and PFMCs after culture with pharmaceutical stimulations were measured. […]
# [3] = system: PBMCs from healthy human; experiment: IFN-γ production by PBMCs of healthy human cultured with icariside I (Example 9); assay type: cell-based; conditions: 0.1, 0.5, 1 μg/ml, 48 h
# Protocol: (1) Isolation of human peripheral blood mononuclear cells (PBMCs): according to the method stated in Example 5 (2), normal human peripheral blood PBMCs were prepared.
# as §1
# (4) ELISA assay for analysis of IFN-γ: according to the method stated in Example 5 (4), the levels of γ-interferon produced by PBMCs and PFMCs after culture with pharmaceutical stimulations were measured.
# PBMCs from healthy human and PFMCs from TB infected patients were respectively cultured for 2 days (48 h), then added or not added with the pharmaceutical icariside I (at a gradient of different concentrations). […] Among the tests, the concentrations of icariside I added were 0.1, 0.5 and 1 μg/ml. *P<0.05; **-***P<0.01.
# [4] = system: S180 ascites tumor of mice; experiment: Inhibition of S180 tumor growth in mice; conditions: for change of body weight (g) / tumor inhibition rate (%) with physiological saline group as control / tumor inhibition rate (%) with solvent group as control / weight of tumor (x ± SD, g): 10 days
# Protocol: NIH mice used for the tests were about 18-22 grams and divided into 10 mice per group. The liquid (0.2 ml) of S180 ascites tumor of mice was inoculated subcutaneously into the armpit region of mice. The next day after the inoculation, each group of mice were injected intraperitoneally: (1) physiological saline group; (2) solvent control group (DMSO); (3) positive control group [cyclophosphamide 60 mg/(kg·d)]; (4) low-dose group 1: icariside I 2 mg/(kg·d); (5) low-dose group 2: icariside I 5 mg/(kg·d); (6) middle-dose group: icariside I 10 mg/(kg·d); (7) high-dose group: icariside I 20 mg/(kg·d). After administration for 10 continuous days, the administration was stopped and on the next day, the mice were weighed and sacrificed with tumor mass stripped and weighed. The physiological saline group and solvent group were used as a control for calculation of tumor inhibition rate.
# [5] = system: human peripheral blood mononuclear cells (PBMCs); experiment: Immunological screening model: IFN-γ produced in human PBMCs; assay type: cell-based
# Source text: The present inventors have long been researching the active components in traditional Chinese herbal medicine and their applications in immunotherapy. The present inventors have established an immunological test model based on determination of the level of IFN-γ produced in human peripheral blood mononuclear cells (PBMCs). By this model, compounds having promotion (or inhibition) effects on human peripheral blood mononuclear cells (PBMCs) to produce γ-interferon can be screened out from chemical components from various sources including traditional Chinese herbal medicine, medicinal plants and so on. Since the γ-Interferon is an important protein (cytokine) in human body's immune system to resist attacks from diseases, its production level in body directly relates to the body's immunity. Therefore, the model is an ideal tool to screen and find functional pharmaceuticals for improving human immunity.
# In addition, all the results and achievements of the present invention are based on the very effective screening model established by the present inventors. Therefore, a further objective of the present invention is to provide an experimental model for screening substances having impacts (either enhance or inhibit) on immunity. […] Finally, by using ELISA techniques, the levels of IFN-γ produced in the culture were measured at different incubation time. […]
compound,measurement,setting,value
COc1ccc(-c2oc3c(CC=C(C)C)c(O[C@@H]4O[C@H](CO)[C@@H](O)[C@H](O)[C@H]4O)cc(O)c3c(=O)c2O)cc1 [icariside I],growth and development of the transplanted tumor mass in nude mice,[1],significantly inhibit
same,effect on PFMCs in producing IFN-γ,[2],significant and dose dependent effect
same,effect on PBMCs in producing IFN-γ,[3],no significant promoting effect
same,tumorigenesis and tumor progression in mice,"[4]; S180, intraperitoneal, 10 continuous days, 2-20 mg/(kg·d)",significantly inhibit
same,change of body weight (g),[4]; high dose 20 mg/Kg i.p.,+9.0 g
same,tumor inhibition rate (%) with physiological saline group as control,[4]; high dose 20 mg/Kg i.p.,67.3%
same,tumor inhibition rate (%) with solvent group as control,[4]; high dose 20 mg/Kg i.p.,74.6%
same,"weight of tumor (x ± SD, g)",[4]; high dose 20 mg/Kg i.p.,0.34 ± 0.12 g
same,change of body weight (g),[4]; low dose 2 mg/Kg i.p.,+11.6 g
same,tumor inhibition rate (%) with physiological saline group as control,[4]; low dose 2 mg/Kg i.p.,5.8%
same,tumor inhibition rate (%) with solvent group as control,[4]; low dose 2 mg/Kg i.p.,26.9%
same,"weight of tumor (x ± SD, g)",[4]; low dose 2 mg/Kg i.p.,0.98 ± 0.47 g
same,change of body weight (g),[4]; low dose 5 mg/Kg i.p.,+12.5 g
same,tumor inhibition rate (%) with physiological saline group as control,[4]; low dose 5 mg/Kg i.p.,26.0%
same,tumor inhibition rate (%) with solvent group as control,[4]; low dose 5 mg/Kg i.p.,42.5%
same,"weight of tumor (x ± SD, g)",[4]; low dose 5 mg/Kg i.p.,0.77 ± 0.47 g
same,change of body weight (g),[4]; middle dose 10 mg/Kg i.p.,+10.6 g
same,tumor inhibition rate (%) with physiological saline group as control,[4]; middle dose 10 mg/Kg i.p.,38.5%
same,tumor inhibition rate (%) with solvent group as control,[4]; middle dose 10 mg/Kg i.p.,52.2%
same,"weight of tumor (x ± SD, g)",[4]; middle dose 10 mg/Kg i.p.,0.64 ± 0.25 g
same,effect in promoting PBMCs to generate IFN-γ,[5],significant effect
